CN1C(C(=O)Nc2ccccn2)=C(O)c2sccc2S1(=O)=O
Settings	solubility (mole fraction)
in PEG-400, 298.15 K	0.00976
in PEG-400, 303.15 K	0.0131
in PEG-400, 308.15 K	0.0175
in PEG-400, 313.15 K	0.0227
in PEG-400, 323.15 K	0.0345

solubility (mole fraction)
Settings	in ethanol	in ethyl acetate	in ethylene glycol	in isopropanol	in n-butanol	in propylene glycol	in sec-butanol	in transcutol	in water
298.15 K	3.71e-05	0.000679	0.000213	6.27e-05	8.13e-05	0.000194	6.15e-05	0.00183	4.11e-06
303.15 K	4.11e-05	0.000746	0.000246	8.91e-05	0.000105	0.000235	8.79e-05	0.00202	5.07e-06
308.15 K	4.56e-05	0.000825	0.000283	0.000125	0.000134	0.000275	0.000123	0.00222	6.46e-06
313.15 K	4.98e-05	0.000908	0.000324	0.000164	0.000163	0.000327	0.000163	0.00241	8.33e-06
323.15 K	5.84e-05	0.00106	0.000441	0.000267	0.000239	0.000437	0.000272	0.00286	1.38e-05

Source: BigSolDB 2.1
